From patent US9040261B2, “Compounds as L-cystine crystallization inhibitors and uses thereof” (NEW YORK UNIVERSITY, priority 2009, dated 2015)
“Also recorded” adds a separate entry of the source.

Assay: Real time in situ AFM step velocity measurements, static conditions
Method: A Digital Instruments (Santa Barbara, Calif.) Nanoscope IIIa Multimode system was used for topographical and lattice imaging. All measurements were performed in contact mode using Veeco NP_B Si3N4 cantilever tips with a spring constant of 0.12N/m (triangular, 196 μm length, 41 μm width) on a glass cantilever holder, and a liquid cell was created for in situ step velocity measurements. All L-cystine crystals for AFM measurements were prepared by method 1. Crystals were transferred onto an AFM specimen disk coated with partially cured (1 hr) UV-curable optical cement (Type SK-9, EMS Acquisition Corp.) by gently pressing the disk against hexagonal platelets or L-cystine needles isolated by filtration (Whatman Nuclepore membrane, 8 μm). The (0001) face of hexagonal platelets was exposed normal to the disk for AFM analysis with growth occurring along equivalent {1010} faces in the lateral directions, while the sides of L-cystine needles were exposed normal to the disc. The partially cured polymer with adhered crystals was completely cured by additional UV radiation (2 hrs) prior to analysis. Measurements of individual step heights for hexagonal L-cystine crystals were acquired in air (contact mode) at a scan rate of 1.00 Hz and 256 samples per line over a 15×15 μm^2 surface area. Integral and proportional gains were set to the highest possible values without obtaining feedback. Four hexagonal crystals (5 areas per crystal) were analyzed for statistical step height distributions, which were calculated from >10^3 individual steps. Lattice-resolved images of crystal surfaces were acquired in water (contact mode) using a scan rate of 112 Hz over a 12×12 nm^2 area.
Real time in situ step velocity measurements of L-cystine growth were assessed along six structurally-equivalent {1010} faces of the hexagonal structure. A liquid cell was created with the glass cantilever tip holder, and working solutions were injected through a 1-mL syringe. Prior to injecting the growth medium (i.e. supersaturated L-cystine solution), crystals were etched with deionized water in the fluid cell for one hour to remove amorphous deposits or impurities that may be present on the surface. Supersaturated solutions (0.5 g/L) were generated by adding L-cystine to deionized water, boiling the solution on a heating mantle for 20 min to completely dissolve the solute, and allowing the solution to cool for 20 min on the heating mantle before transferring the solution (via syringe) to the AFM fluid cell. […]
The effect of additives on crystal growth rates was investigated. […] For each measurement, growth was first assessed in the absence of additive, then in the presence of additive on the identical area of the crystal surface to analyze relative changes in step velocity. […]

For `COC(=O)[C@@H](N)CSSC[C@H](N)C(=O)OC.Cl.Cl` [CDME, Cystine Dimethyl Ester Dihydrochloride], the “advancement of higher {1010} steps” value (5.0 g/L CDME, 0.5 g/L L-cystine, step heights >0.6 nm, larger than 1 nm, Dihydrochloride) was “suppresses; also recorded: completely suppressed” and the “Step velocity of 1-nm steps” value (large excess of CDME (5 g/L), 29 nm/min in the absence of additive) was 7 nm/min.
